# What was measured:
# [1] = target: T1, USP14 mutant BL2-DNHG (Homo sapiens, UniProt P54578, DEL429-429/S430D/S431N/S432H/S433G); assay: Screening assay with USP14 mutant BL2-DNHG, ubiquitin-rhodamine 110 cleavage; format: biochemical; settings: 1.275 μM mutant USP14 preincubated 30 minutes; Ub-Rh110; normalized to DMSO (0%) and 10 mM NEM (100%); FIG. 8
# T1 construct: a full-length cDNA clone encoding full-length USP14 isoform a; 6xHis (N); yeast SUMO (S. cerevisiae Smt3) (N); made in house; host or cells: E. coli (Rosetta 2 (DE3) pLysS stated for the pE-SUMOpro-USP14 construct)
# Procedure: (§1) Another screening assay was performed with the USP14 mutant BL2-DNHG. Test compounds were diluted in DMSO to the appropriate concentration before dispensing 2 μl of each compound into a black walled 96 well plate. The compounds were preincubated with 80 μl of reaction buffer containing 1.275 μM mutant USP14 for 30 minutes before adding 20 μl of 510 nM ubiquitin-rhodamine 110 in reaction buffer. The plates were incubated at room temperature before reading on a fluorimeter equipped with excitation and emission filters of 485 and 528 nm respectively and a 510 nm dichroic mirror within the linear range of the assay.
# [2] = target: T2, USP14 mutant BL1-USP21 (Homo sapiens, UniProt P54578, DEL335-341/INS333SRGSI); assay: Screening assay with USP14 mutant BL1-USP21, ubiquitin-rhodamine 110 cleavage; format: biochemical; settings: 63.75 nM mutant USP14 preincubated 30 minutes; Ub-Rh110; normalized to DMSO (0%) and 10 mM NEM (100%); FIG. 7
# T2 construct: a full-length cDNA clone encoding full-length USP14 isoform a; made in house; host or cells: E. coli Rosetta 2 (DE3) pLysS
# Procedure: as §1, with “Test” for “Another screening assay was performed with the USP14 mutant BL2-DNHG. Test”, “containing 63.75 nM” for “containing 1.275 μM”, “[…]” for “528 nm”, “assay. […] FIG. 7 provides a graph of the results.” for “assay.”
# T2 sequence (P54578 with tags, fused parts or gaps INS333SRGSI/DEL335-341): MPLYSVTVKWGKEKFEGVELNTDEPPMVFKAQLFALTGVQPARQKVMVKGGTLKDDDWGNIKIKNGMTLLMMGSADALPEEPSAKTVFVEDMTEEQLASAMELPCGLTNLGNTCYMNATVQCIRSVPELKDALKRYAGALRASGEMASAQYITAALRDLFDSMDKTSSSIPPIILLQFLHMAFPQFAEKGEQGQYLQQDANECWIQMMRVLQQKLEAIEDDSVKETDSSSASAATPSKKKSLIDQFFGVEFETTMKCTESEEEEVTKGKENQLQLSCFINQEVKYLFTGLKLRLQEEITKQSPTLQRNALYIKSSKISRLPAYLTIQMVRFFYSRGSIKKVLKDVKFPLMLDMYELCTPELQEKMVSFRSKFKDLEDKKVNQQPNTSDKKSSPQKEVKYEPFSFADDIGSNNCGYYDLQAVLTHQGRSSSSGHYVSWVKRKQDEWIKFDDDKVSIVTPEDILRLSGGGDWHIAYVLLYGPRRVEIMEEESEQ
# T1 sequence (P54578 with tags, fused parts or gaps DEL429-429/S430D/S431N/S432H/S433G): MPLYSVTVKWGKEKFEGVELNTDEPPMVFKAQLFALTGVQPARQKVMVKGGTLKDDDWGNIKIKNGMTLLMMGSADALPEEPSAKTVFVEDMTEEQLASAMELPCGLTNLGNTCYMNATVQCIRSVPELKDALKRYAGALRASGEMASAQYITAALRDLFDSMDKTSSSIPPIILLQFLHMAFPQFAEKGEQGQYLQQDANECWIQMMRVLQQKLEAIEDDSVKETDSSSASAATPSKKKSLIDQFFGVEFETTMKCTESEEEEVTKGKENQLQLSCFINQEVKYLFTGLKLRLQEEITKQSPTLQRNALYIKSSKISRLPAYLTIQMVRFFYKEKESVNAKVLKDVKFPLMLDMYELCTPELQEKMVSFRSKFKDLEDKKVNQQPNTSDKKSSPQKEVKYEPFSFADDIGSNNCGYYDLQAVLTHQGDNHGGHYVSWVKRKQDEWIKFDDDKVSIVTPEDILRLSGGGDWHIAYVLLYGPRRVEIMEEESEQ
inhibition of USP14 mutant (BL2-DNHG) [1],inhibition of USP14 mutant (BL1-USP21) [2],Compound
do not inhibit,do not inhibit,CC(=O)c1cc([N+](=O)[O-])c(Sc2ccc(F)cc2F)s1 [P22077]
inhibit,inhibit,N#CSc1cc(SC#N)c(N)nc1N [PR-619]

# Source: US20130273027A1, “MUTANT PROTEASES AND METHODS OF USE THEREOF” (Progenra, Inc., priority 2012, published 2013)
